Test results reported in patent publication US9937217B2, “Method of inhibiting ABCG2 and related treatments” (The United States of America, as represented by the …, priority 2007, dated 2018).
Where “and” joins values, the source holds several entries; their conditions need not be identical. Equal entries are not always repeated. Where two headings read alike, the source gives them in different places.

How the values were obtained:
ABCG2 [1] = biological target: T1, ABCG2 (Homo sapiens, UniProt Q9UNQ0); assay: Pheophorbide a (PhA) accumulation screening assay; assay type: cell-based
T1 sequence (Q9UNQ0 1-655): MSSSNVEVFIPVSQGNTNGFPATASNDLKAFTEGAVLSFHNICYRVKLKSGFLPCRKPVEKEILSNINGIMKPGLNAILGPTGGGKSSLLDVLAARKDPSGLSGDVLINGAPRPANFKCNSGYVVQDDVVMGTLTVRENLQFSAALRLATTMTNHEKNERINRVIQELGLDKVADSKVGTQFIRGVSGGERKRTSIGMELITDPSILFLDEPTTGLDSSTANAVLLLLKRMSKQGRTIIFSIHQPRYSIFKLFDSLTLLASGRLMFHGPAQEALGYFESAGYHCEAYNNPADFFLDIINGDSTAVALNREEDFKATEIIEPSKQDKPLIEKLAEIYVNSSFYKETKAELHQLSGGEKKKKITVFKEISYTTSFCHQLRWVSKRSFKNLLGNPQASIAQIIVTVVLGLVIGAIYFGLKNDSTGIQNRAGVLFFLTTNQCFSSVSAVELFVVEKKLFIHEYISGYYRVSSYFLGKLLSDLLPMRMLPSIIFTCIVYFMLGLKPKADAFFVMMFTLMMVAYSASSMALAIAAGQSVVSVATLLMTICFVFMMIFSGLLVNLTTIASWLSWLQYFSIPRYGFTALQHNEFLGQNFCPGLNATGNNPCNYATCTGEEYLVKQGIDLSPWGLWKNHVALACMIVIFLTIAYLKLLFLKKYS
Experimental: (§1) To prepare the cell culture, NCI-H460 human lung non-small-cell carcinoma cells (National Cancer Institute, Frederick, Md.) are selected for over-expression of ABCG2 by maintenance in RPMI1640/10% FBS supplemented with 20 nM mitoxantrone (Robey et al., Biochim. Biophys. Acta, 1512: 171-82 (2001)). After removal of mitoxantrone, cells are further grown in the same medium without mitoxantrone for 5-30 days. These cells are designated NCI-H460/MX20. Parental cells (low ABCG2 expression) (Robey et al., vide supra) are maintained in the same medium without mitoxantrone. ABCG2-transfected or MDR1-transfected (i.e. Pgp-expressing) HEK293 cells are maintained in 2 mg/ml G418 as previously described (Robey et al., Br. J. Cancer, 89: 1971-8 (2003)). MRP1-transfected HEK293 cells are maintained in 5 μM etoposide. MCF-7 FLV1000 cells are maintained in Richter's medium with 10% FCS and Pen/strep with 1000 nM flavopiridol (Robey et al., Clin. Cancer Res., 7: 145-52 (2001)).
Accumulation of pheophorbide a, a fluorescent ABCG2 substrate (Jonker et al., Proc. Natl. Acad. Sci. USA, 99: 15649-54 (2002) and Robey et al., Cancer Res., 64: 1242-6 (2004)), formed the basis of the assay for inhibitors of ABCG2 activity (Henrich et al., J. Biomol. Screen, 11: 176-83 (2006)). Briefly, NCI-H460/MX20 cells are transferred to black wall, clear bottom 384-well polylysine-coated assay plates (Corning, Corning, N.Y.) and allowed to attach for several hours. Pheophorbide a (1 μM final concentration) is added immediately followed by compounds or vehicle (DMSO/PBS) control and incubated an additional 18 h. After removal of medium and washing with PBS containing Ca^2+ and Mg^2+, fluorescence intensity is read on a Tecan Safire fluorescence plate reader in bottom read mode, 395 nm excitation, 670 nm emission. Each plate has control wells containing 10 μM (final concentration) FTC. Data are normalized to FTC and reported as % of FTC fluorescence.

NCI-H460/MX20 cells = assay: Sensitization of ABCG2-overexpressing cells to killing by mitoxantrone (XTT assay); assay type: cell-based, human; details: for MX sensitization: % NCI-H460/MX20 cell survival in the presence of compound and mitoxantrone: 10 μM compound
Experimental: After removal of mitoxantrone, cells are further grown in the same medium without mitoxantrone for 5-30 days. These cells are designated NCI-H460/MX20. Parental cells (low ABCG2 expression) (Robey et al., vide supra) are maintained in the same medium without mitoxantrone. […] MRP1-transfected HEK293 cells are maintained in 5 μM etoposide.
Final DMSO concentration is 0.2% (v/v).

ABCG2 [2] = biological target: T1, ABCG2; assay: BODIPY-prazosin efflux, ABCG2-transfected HEK293 cells (flow cytometry); details: 10 μM compound
Experimental: (§2) APC fluorescence is measured with a 635 nm read diode laser and 561 nm longpass filter. At least 10000 events are collected. Dead cells are eliminated based on propidium iodide exclusion.
(§3) Cells are then washed and incubated in substrate-free medium continuing with or without inhibitor for 1 h.

ABCG2 [3] = biological target: T1, ABCG2; assay type: cell-based; details: compound, ABCG2-transfected HEK293
Experimental: At least 10000 events are collected. Dead cells are eliminated based on propidium iodide exclusion.
Five compounds are examined for their ability to increase surface staining of the 5D3 antibody.
The 5D3 shift assay is performed as described by Ozvegy-Laczka et al. with minor modifications. […] Cells are subsequently washed and incubated with APC-labeled goat anti-mouse secondary antibody (1:35) for 30 min after which the cells are washed and analyzed.

ABCG2 [4] = biological target: T1, ABCG2; assay: Photoaffinity labeling of ABCG2 with [125I]-IAAP in MCF-7 FLV1000 membranes; assay type: binding; details: 20 μM compound; for activity at 10 min, 20 µM: human, crude membranes of MCF-7 FLV1000 cells expressing ABCG2, pH 7.5, probe [125I]-IAAP, 3-6 nM (2200 Ci/mmole), read-out: Blocking of 125I-IAAP binding: % of control binding
Experimental: ABCG2 expressed in MCF-7 FLV1000 cells is photo-labeled with [^125I]-IAAP as described previously (Shukla et al., Biochemistry, 45: 8940-51 (2006)). Briefly, crude membranes (1 mg protein/me of MCF-7 FLV1000 cells are incubated with 20 μM of the indicated compound for 10 min at room temperature in 50 mM Tris-HCl, pH 7.5. 3-6 nM [^125I]-IAAP (2200 Ci/mmole) (PerkinElmer Life Sciences, Wellesley, Mass.) is added, and the samples are incubated for an additional 5 min under subdued light. The samples are then exposed to ultraviolet (UV, 365 nm) light for 10 min, and the labeled ABCG2 is immunoprecipitated using BXP-21 antibody. The radioactivity incorporated into the ABCG2 band is quantified using the STORM 860 PhosphorImager system (Molecular Dynamics, Sunnyvale, Calif.) and ImageQuaNT software (Molecular Dynamics).

Pgp = Pgp (Homo sapiens, UniProt P08183)
Experimental: as §2, §3

MRP1 = biological target: T2, MRP1 (Homo sapiens, UniProt P33527); assay: Calcein efflux, MRP1-transfected HEK293 cells (flow cytometry); assay type: cell-based; details: 10 μM compound
T2 construct: expressed in transfected cells; host or cells: HEK293
Experimental: as §2, §3

NCI-H460 cells = assay: Mitoxantrone / compound cytotoxicity in parental cells (XTT assay); assay type: cell-based; details: Homo sapiens, 48 h; unselected NCI-H460 cells, 30 μM mitoxantrone, 2 days, (sd); read-out: Cell numbers, % of control (vehicle), mitoxantrone alone
Experimental: as §1
The ability of compounds to sensitize NCI-H460/MX20 cells to killing by mitoxantrone is assessed as described in Henrich et al. (J. Biomol. Screen, 11: 176-83 (2006)). ABCG2 over-expressing cells or parental cells are treated with mitoxantrone in the presence or absence of 10 μM compound (or 1 μM FTC) and cell numbers assessed after 2 d by an XTT assay (Scudiero et al., Cancer Res., 48: 4827-33 (1988)). […]

ABCG2 [5] = biological target: T1, ABCG2; details: NCI-H460/MX20 cells; Henrich et al., 2006; read-out: Pheophorbide a IC50 for FTC; cited from earlier work
[6] = NCI-H460/MX20 cells, PhA accumulation, read-out: Pheophorbide a IC50

Sequence of Pgp (P08183 whole entry): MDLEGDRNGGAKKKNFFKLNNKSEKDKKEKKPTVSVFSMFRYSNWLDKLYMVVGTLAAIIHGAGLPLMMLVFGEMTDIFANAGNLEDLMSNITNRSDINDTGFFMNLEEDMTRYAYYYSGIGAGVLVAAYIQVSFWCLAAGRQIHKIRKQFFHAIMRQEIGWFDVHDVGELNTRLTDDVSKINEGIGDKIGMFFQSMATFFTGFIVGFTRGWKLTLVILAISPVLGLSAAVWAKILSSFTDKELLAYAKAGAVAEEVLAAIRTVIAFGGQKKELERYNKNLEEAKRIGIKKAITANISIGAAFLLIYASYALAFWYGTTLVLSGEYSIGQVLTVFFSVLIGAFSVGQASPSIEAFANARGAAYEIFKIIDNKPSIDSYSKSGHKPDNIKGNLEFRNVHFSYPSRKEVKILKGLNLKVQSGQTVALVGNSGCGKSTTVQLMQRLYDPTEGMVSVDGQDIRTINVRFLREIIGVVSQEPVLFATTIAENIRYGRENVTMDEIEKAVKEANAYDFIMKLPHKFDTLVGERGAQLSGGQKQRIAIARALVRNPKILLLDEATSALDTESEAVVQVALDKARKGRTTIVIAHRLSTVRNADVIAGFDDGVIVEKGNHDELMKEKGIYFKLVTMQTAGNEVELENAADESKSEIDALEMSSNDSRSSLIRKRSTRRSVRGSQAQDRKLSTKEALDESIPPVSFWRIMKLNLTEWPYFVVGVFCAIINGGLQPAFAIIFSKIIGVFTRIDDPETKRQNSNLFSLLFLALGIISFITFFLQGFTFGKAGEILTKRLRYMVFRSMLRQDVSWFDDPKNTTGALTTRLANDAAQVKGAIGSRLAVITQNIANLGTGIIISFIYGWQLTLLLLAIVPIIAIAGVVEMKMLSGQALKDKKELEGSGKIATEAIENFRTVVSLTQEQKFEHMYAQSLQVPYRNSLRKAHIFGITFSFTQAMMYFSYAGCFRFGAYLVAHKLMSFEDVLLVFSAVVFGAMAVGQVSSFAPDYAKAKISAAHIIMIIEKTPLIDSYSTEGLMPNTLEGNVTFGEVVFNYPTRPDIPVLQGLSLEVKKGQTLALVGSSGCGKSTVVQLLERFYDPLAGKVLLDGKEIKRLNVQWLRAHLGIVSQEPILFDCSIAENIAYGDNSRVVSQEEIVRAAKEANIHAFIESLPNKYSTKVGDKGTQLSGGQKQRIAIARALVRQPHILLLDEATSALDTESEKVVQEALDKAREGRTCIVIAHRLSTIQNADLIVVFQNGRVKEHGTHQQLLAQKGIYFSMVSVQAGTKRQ
T2 sequence (P33527 whole entry): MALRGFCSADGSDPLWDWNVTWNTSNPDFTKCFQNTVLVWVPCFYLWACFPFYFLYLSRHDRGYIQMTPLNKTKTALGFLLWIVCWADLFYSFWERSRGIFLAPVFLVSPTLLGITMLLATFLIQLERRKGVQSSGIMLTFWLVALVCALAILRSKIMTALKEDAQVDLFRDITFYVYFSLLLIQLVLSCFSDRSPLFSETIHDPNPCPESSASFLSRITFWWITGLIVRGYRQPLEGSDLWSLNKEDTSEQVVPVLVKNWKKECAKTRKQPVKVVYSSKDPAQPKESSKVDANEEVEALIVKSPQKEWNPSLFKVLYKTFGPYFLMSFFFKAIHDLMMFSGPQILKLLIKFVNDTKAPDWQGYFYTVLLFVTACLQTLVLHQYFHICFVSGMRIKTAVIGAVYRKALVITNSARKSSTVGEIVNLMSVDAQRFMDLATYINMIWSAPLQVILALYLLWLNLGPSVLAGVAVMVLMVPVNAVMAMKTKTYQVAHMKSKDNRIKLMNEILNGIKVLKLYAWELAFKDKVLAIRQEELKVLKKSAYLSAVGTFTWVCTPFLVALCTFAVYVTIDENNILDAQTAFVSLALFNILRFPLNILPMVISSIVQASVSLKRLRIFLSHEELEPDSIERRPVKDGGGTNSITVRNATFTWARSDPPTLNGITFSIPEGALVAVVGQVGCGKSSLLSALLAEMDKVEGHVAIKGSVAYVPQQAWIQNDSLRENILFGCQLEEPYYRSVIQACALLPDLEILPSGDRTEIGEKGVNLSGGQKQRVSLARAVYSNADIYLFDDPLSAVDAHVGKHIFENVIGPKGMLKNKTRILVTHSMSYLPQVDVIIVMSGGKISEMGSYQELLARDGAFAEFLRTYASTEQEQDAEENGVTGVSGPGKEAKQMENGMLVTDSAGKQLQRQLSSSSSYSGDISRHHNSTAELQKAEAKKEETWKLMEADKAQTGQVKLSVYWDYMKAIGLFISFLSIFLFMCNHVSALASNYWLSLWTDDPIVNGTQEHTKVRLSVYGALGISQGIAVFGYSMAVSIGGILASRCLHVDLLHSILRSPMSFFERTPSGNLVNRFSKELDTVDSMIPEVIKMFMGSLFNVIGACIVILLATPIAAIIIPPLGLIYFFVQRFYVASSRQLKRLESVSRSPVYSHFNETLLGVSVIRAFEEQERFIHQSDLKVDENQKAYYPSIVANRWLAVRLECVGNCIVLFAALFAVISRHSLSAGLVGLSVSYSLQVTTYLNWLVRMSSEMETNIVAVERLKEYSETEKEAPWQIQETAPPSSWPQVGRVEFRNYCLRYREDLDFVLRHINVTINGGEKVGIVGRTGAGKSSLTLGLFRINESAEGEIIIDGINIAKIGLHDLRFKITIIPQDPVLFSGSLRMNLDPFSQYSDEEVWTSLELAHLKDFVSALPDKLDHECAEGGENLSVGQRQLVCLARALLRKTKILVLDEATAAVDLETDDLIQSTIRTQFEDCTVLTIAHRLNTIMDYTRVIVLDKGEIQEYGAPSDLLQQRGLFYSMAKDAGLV

| SMILES | IC50 (ABCG2 [1]; [6]) [µM] | Pheophorbide a total, % of FTC response (ABCG2 [1]; human, 18 h, 10 µM) [%] | MX sensitization: % NCI-H460/MX20 cell survival in the presence of compound and mitoxantrone (NCI-H460/MX20 cells; 30 μM mitoxantrone, 2 d) [%] | BODIPY-prazosin efflux: treated/control ratio (ABCG2 [2]) | 5D3 staining: treated/control ratio (ABCG2 [3]) | activity at 10 min, 20 µM (ABCG2 [4]) [%] | Pgp inhibition, rhodamine efflux: treated/control ratio (Pgp; human, 10 µM) | MRP1 inhibition, calcein efflux: treated/control ratio (MRP1) | IC50 (ABCG2 [1]) [µM] | Pgp inhibition, rhodamine efflux: treated/control ratio (Pgp; valspodar 3 μg/mL, positive control) | Cell number, % of control, mitoxantrone alone (NCI-H460/MX20 cells; NCI-H460/MX20 cells, mitoxantrone treatment, (sd)) [%] | activity at 30 µM (NCI-H460 cells) [%] | Pheophorbide a total, % of FTC response (ABCG2 [1]; 10 μM compound, NCI-H460/MX20 cells, normalized to 10 μM FTC) [%] | MX sensitization: % NCI-H460/MX20 cell survival in the presence of FTC and mitoxantrone (NCI-H460/MX20 cells; 1 μM FTC, 30 μM mitoxantrone, 2 d) | Blocking of 125I-IAAP binding: % of control binding (ABCG2 [4]) [%] | IC50 (ABCG2 [5]) [µM] |
| --- | --- | --- | --- | --- | --- | --- | --- | --- | --- | --- | --- | --- | --- | --- | --- | --- |
| O=C(O)c1ccc(/C=N/N=C2c3ccccc3-c3ccccc32)cc1 [NSC120688] | 4.3 | 67.2 | 20.9 | 2.0 | 3.7 | 19.1 | 0.84 | 0.81 | – | – | – | – | – | – | – | – |
| Cn1ncc2c(NCCc3ccccc3)nc(Cl)nc21 [NSC19139] | 2.6 | 76.6 | 30.0 | 3.5 | 3.6 | 33.5 | 0.77 | 1.3 | – | – | – | – | – | – | – | – |
| COc1cc2c[n+](C)c3c4cc(OC)c(OC)cc4ccc3c2cc1OC [NSC168201] | 3.9 | 104.5 | 21.2 | 2.6 | 3.7 | 34.2 | 0.64 | 0.81 | – | – | – | – | – | – | – | – |
| Cn1ncc2c(Nc3cccc(Cl)c3)nc(Nc3cccc(Cl)c3)nc21 [NSC11668] | – | 84.1 | 21.9 | 5.9 | 4.0 | 24.6 | 0.73 | 1.2 | 4.5 | – | – | – | – | – | – | – |
| Cc1cc(O)nc2cc3oc4ccccc4c3cc12 [NSC375985] | – | 63.8 | 27.6 | 3.6 | 3.2 | 48.7 | 0.84 | 1.8 | 3.7 | – | – | – | – | – | – | – |
| C/C=C/C[C@@H](C)C(=O)[C@H]1C(=O)N[C@@H](C(C)C)C(=O)N(C)CC(=O)N(C)[C@@H](CC(C)C)C(=O)N[C@@H](C(C)C)C(=O)N(C)[C@@H](CC(C)C)C(=O)N[C@@H](C)C(=O)N[C@H](C)C(=O)N(C)[C@@H](CC(C)C)C(=O)N(C)[C@@H](CC(C)C)C(=O)N(C)[C@@H](C(C)C)C(=O)N1C [valspodar, reference compound] | – | – | – | – | – | – | – | – | – | 14.9 | – | – | – | – | – | – |
| O=C1c2c(O)ccc(O)c2C(=O)c2c(NCCNCCO)ccc(NCCNCCO)c21 [mitoxantrone, reference compound] | – | – | – | – | – | – | – | – | – | – | 56.1±2.1 | 21.6 ± 1.6 | – | – | – | – |
| COc1ccc2c3c([nH]c2c1)[C@H](C=C(C)C)N1C(=O)[C@@H]2CCCN2C(=O)[C@@H]1C3 [FTC, fumitremorgin C, reference compound] | – | – | – | 3.5 | 3.7 | – | – | – | – | – | – | – | 100 | 24.5±1.5% and 24.5% | 32.7 | 0.8 |
